Tested on: P12-Ichikawa
Test: cell viability relative to DMSO control; higher = less cytotoxic
Conditions: 48 h
Method in brief: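 Viability is a per-plate percentage relative to DMSO wells, with cell-free wells as background. CellTiter-Glo One luminescence was read after 48 h at 37°C on 1536-well plates (5 μl) of NOMO1 or SEM (500 cells/well) or P12-Ichikawa (1000 cells/well) leukemia cells. The cells had been adapted for at least four passages in each medium and pin-dosed with library compounds in DMSO from 47 μM to 0.79 nM in 11 threefold steps.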

[1] = HPLM + 10% dialyzed FBS, 0.000781 µM
[2] = HPLM + 10% dialyzed FBS, 0.00234 µM
[3] = HPLM + 10% dialyzed FBS, 0.00702 µM
[4] = HPLM + 10% dialyzed FBS, 0.0211 µM
[5] = HPLM + 10% dialyzed FBS, 0.0632 µM
[6] = HPLM + 10% dialyzed FBS, 0.19 µM
[7] = HPLM + 10% dialyzed FBS, 0.569 µM
[8] = HPLM + 10% dialyzed FBS, 1.71 µM
[9] = HPLM + 10% dialyzed FBS, 5.12 µM
[10] = HPLM + 10% dialyzed FBS, 15.4 µM
[11] = HPLM + 10% dialyzed FBS, 46.1 µM
[12] = RPMI 5 mM glucose + 10% FBS, 0.000781 µM
[13] = RPMI 5 mM glucose + 10% FBS, 0.00234 µM
[14] = RPMI 5 mM glucose + 10% FBS, 0.00702 µM
[15] = RPMI 5 mM glucose + 10% FBS, 0.0211 µM
[16] = RPMI 5 mM glucose + 10% FBS, 0.0632 µM
[17] = RPMI 5 mM glucose + 10% FBS, 0.19 µM
[18] = RPMI 5 mM glucose + 10% FBS, 0.569 µM
[19] = RPMI 5 mM glucose + 10% FBS, 1.71 µM
[20] = RPMI 5 mM glucose + 10% FBS, 5.12 µM
[21] = RPMI 5 mM glucose + 10% FBS, 15.4 µM
[22] = RPMI 5 mM glucose + 10% FBS, 46.1 µM
[23] = RPMI 5 mM glucose + 10% dialyzed FBS, 0.000781 µM
[24] = RPMI 5 mM glucose + 10% dialyzed FBS, 0.00234 µM
[25] = RPMI 5 mM glucose + 10% dialyzed FBS, 0.00702 µM
[26] = RPMI 5 mM glucose + 10% dialyzed FBS, 0.0211 µM
[27] = RPMI 5 mM glucose + 10% dialyzed FBS, 0.0632 µM
[28] = RPMI 5 mM glucose + 10% dialyzed FBS, 0.19 µM
[29] = RPMI 5 mM glucose + 10% dialyzed FBS, 0.569 µM
[30] = RPMI 5 mM glucose + 10% dialyzed FBS, 1.71 µM
[31] = RPMI 5 mM glucose + 10% dialyzed FBS, 5.12 µM
[32] = RPMI 5 mM glucose + 10% dialyzed FBS, 15.4 µM
[33] = RPMI 5 mM glucose + 10% dialyzed FBS, 46.1 µM

Structure (SMILES) | cell viability [1] | cell viability [2] | cell viability [3] | cell viability [4] | cell viability [5] | cell viability [6] | cell viability [7] | cell viability [8] | cell viability [9] | cell viability [10] | cell viability [11] | cell viability [12] | cell viability [13] | cell viability [14] | cell viability [15] | cell viability [16] | cell viability [17] | cell viability [18] | cell viability [19] | cell viability [20] | cell viability [21] | cell viability [22] | cell viability [23] | cell viability [24] | cell viability [25] | cell viability [26] | cell viability [27] | cell viability [28] | cell viability [29] | cell viability [30] | cell viability [31] | cell viability [32] | cell viability [33]
Nc1nc(F)nc2c1ncn2[C@@H]1O[C@H](COP(=O)(O)O)[C@@H](O)[C@@H]1O | 119% | 120% | 121% | 121% | 130% | 124% | 120% | 133% | 128% | 84.2% | 52.2% | 122% | 121% | 132% | 129% | 122% | 142% | 126% | 141% | 137% | 110% | 74.8% | 127% | 123% | 123% | 123% | 130% | 138% | 124% | 126% | 129% | 99.5% | 62.1%
N[S+](=O)([O-])c1ccc(Nc2nc(OCC3CCCCC3)c3[nH]cnc3n2)cc1 | 114% | 115% | 117% | 118% | 48% | 24.2% | 13.1% | 15.9% | 20.3% | 52.2% | 73% | 117% | 118% | 115% | 120% | 103% | 109% | 32.3% | 14.7% | 15.2% | 19.4% | 66.2% | 120% | 123% | 111% | 120% | 109% | 108% | 25.2% | 20.7% | 22.5% | 36.5% | 59.5%
C[C@H](NC(=O)Cc1cc(F)cc(F)c1)C(=O)N[C@H](C(=O)OC(C)(C)C)c1ccccc1 | 94% | 90.9% | 94.9% | 94.1% | 94.6% | 92.5% | 89% | 88.3% | 86.9% | 88% | 80.4% | 92.3% | 91.7% | 91.2% | 87% | 90.7% | 95.4% | 89.1% | 82.7% | 87.9% | 87.6% | 92.8% | 78.9% | 82.5% | 79.8% | 79.7% | 86.1% | 88.8% | 78.2% | 86.1% | 83.7% | 77.4% | 73.3%
CC[C@H]1OC(=O)[C@H](C)[C@@H](O[C@H]2C[C@@](C)(OC)[C@@H](O)[C@H](C)O2)[C@H](C)[C@@H](O[C@@H]2O[C@H](C)C[C@H](N(C)C)[C@H]2O)[C@](C)(OC)C[C@@H](C)C(=O)[C@H](C)[C@@H](O)[C@]1(C)O | 109% | 102% | 98% | 98.7% | 103% | 96.7% | 95.8% | 93.2% | 91.6% | 93.5% | 82.1% | 94.3% | 103% | 98.6% | 88.4% | 96.3% | 98.5% | 90.8% | 89.8% | 86% | 84.2% | 89.6% | 93.2% | 98.5% | 96.3% | 88% | 94.8% | 94.3% | 90.5% | 85.6% | 90.8% | 94.2% | 81.2%
CC1(C)CC\C2=C(/O1)C3=C(C=CC=C3)C(=O)C2=O | 112% | 118% | 114% | 116% | 106% | 111% | 110% | 102% | 104% | 99.4% | 2.4% | 113% | 106% | 94.9% | 102% | 112% | 109% | 105% | 98.3% | 105% | 90.5% | 0.954% | 107% | 119% | 100% | 101% | 108% | 96.6% | 109% | 89.2% | 102% | 94.9% | 1.41%
CNc1nc(-c2ccc3c(N)n[nH]c3c2)cc(N2C[C@@H](C(=O)NC3CCCCC3)CC[C@H]2C)n1 | 97.8% | 85.9% | 90.8% | 95.6% | 98.6% | 90.8% | 83.5% | 76.9% | 75.3% | 72.3% | 13.4% | 76.7% | 91.4% | 82.5% | 86.5% | 78.6% | 65.6% | 64% | 57.7% | 54.9% | 51% | 12.8% | 83.5% | 86.6% | 79.9% | 86.5% | 88.4% | 69.9% | 65.5% | 63.5% | 59.8% | 52.1% | 27.8%
CN1C(=O)c2sccc2N(C)c2nc(Nc3ccc([S+](N)(=O)[O-])cc3)ncc21 | 91.5% | 94% | 95.1% | 102% | 101% | 96.2% | 92.6% | 75.7% | 11.4% | 5.78% | 5.18% | 96.2% | 96% | 98.3% | 93.4% | 99.7% | 99.7% | 90% | 73.6% | 17.2% | 13.1% | 6.79% | 98.2% | 103% | 104% | 99.4% | 98.2% | 88.9% | 95.8% | 64.9% | 23.4% | 14.5% | 9.34%
CC/C=C\C[C@H]1C(=O)CC[C@@H]1CC(=O)OC | 121% | 119% | 126% | 125% | 126% | 126% | 117% | 115% | 115% | 114% | 108% |  |  |  |  |  |  |  |  |  |  |  | 122% | 129% | 124% | 121% | 131% | 125% | 125% | 126% | 125% | 116% | 109%
CC(C)C1CCC(C(=O)N[C@H](Cc2ccccc2)C(=O)O)CC1 (some centres undefined) | 100% | 95.9% | 98.9% | 103% | 95% | 99.5% | 92.5% | 88.2% | 93.6% | 87.4% | 86.9% | 94.3% | 97.8% | 91.9% | 96.9% | 98.2% | 93.7% | 84.4% | 88.3% | 86.3% | 83.5% | 87.1% | 91.1% | 95.3% | 88.2% | 92.3% | 90.9% | 89.7% | 77.7% | 86.9% | 89.7% | 79.9% | 84.6%
CC1(C)SCCN([S+](=O)([O-])c2ccc(OCC#CCO)cc2)[C@H]1C(=O)NO | 103% | 108% | 107% | 98.9% | 104% | 103% | 98.5% | 90.9% | 91.2% | 93.4% | 95.1% | 106% | 95.5% | 101% | 98.7% | 101% | 95.8% | 104% | 87.5% | 87.9% | 80.6% | 89.2% | 97% | 97.7% | 101% | 103% | 89.8% | 88.3% | 88.1% | 91.9% | 86.9% | 85.4% | 83.6%
CCCCCNC(=N)N/N=C/c1c[nH]c2ccc(OC)cc12 | 122% | 119% | 121% | 130% | 126% | 139% | 128% | 137% | 121% | 59.8% | 20.2% |  |  |  |  |  |  |  |  |  |  |  |  |  |  |  |  |  |  |  |  |  | 
NC1=NC(=O)N2CC12 (centres undefined) | 91% | 103% | 101% | 107% | 103% | 97% | 103% | 99.7% | 83.1% | 3.88% | 2.17% | 92.5% | 91.2% | 96.2% | 102% | 106% | 97.4% | 104% | 67.8% | 59% | 2.82% | 0.916% | 85.3% | 94.6% | 92.1% | 90.9% | 87.4% | 88.5% | 95.6% | 73.5% | 59.9% | 6.25% | 2.73%
Cc1ccc(C(=O)Nc2cccc(C(F)(F)F)c2)cc1Nc1nc(-c2cccnc2)nc2c1cnn2C | 88.1% | 90.8% | 93.7% | 89.5% | 91.2% | 90% | 86.6% | 85.9% | 83.3% | 86.7% | 84% | 73.1% | 83.8% | 88.9% | 85.6% | 83.9% | 82.8% | 87.5% | 88.2% | 79.5% | 78.8% | 74.5% | 90.8% | 85.2% | 87.6% | 86.7% | 95.5% | 84.7% | 90.9% | 96.7% | 75.8% | 76.8% | 86.5%
C=CC(=O)Nc1cc2c(Nc3ccc(F)c(Cl)c3)ncnc2cc1C#CC(C)(C)N1CCN(C)CC1 | 103% | 108% | 99.5% | 97.4% | 102% | 106% | 107% | 102% | 58.9% | 5.08% | 23.4% | 95.6% | 105% | 101% | 102% | 112% | 106% | 107% | 106% | 65.7% | 5.56% | 15.3% | 97.4% | 101% | 96.1% | 101% | 101% | 98.2% | 96.1% | 95.7% | 51% | 5.48% | 12.7%
C[S+](=O)([O-])Oc1ccc2c(NC(N)=O)c(C(=O)c3ccc(Cl)cc3Cl)oc2c1 | 113% | 120% | 122% | 116% | 120% | 113% | 122% | 119% | 108% | 99.9% | 66.5% | 112% | 109% | 121% | 117% | 130% | 116% | 123% | 125% | 129% | 109% | 73.3% | 116% | 118% | 112% | 110% | 117% | 122% | 122% | 126% | 118% | 105% | 91.5%
COc1ccc(CCC(=O)c2c(O)cc(O[C@@H]3O[C@H](CO)[C@@H](O)[C@H](O)[C@H]3O[C@@H]3O[C@@H](C)[C@H](O)[C@@H](O)[C@H]3O)cc2O)cc1O | 115% | 117% | 116% | 110% | 119% | 116% | 117% | 113% | 107% | 107% | 38.8% |  |  |  |  |  |  |  |  |  |  |  | 105% | 115% | 118% | 116% | 108% | 114% | 111% | 113% | 107% | 106% | 105%
